Data as given in patent US20250186470A1, “Compositions and Methods Using Lactulose for Treating Disease” (THE UNIVERSITY OF CHICAGO, priority 2023, published 2025).

What was measured:
[1] = test system: VRE (vancomycin resistant Enterococcus faecium, ATCC 700221); test: VRE growth curves in B. longum conditioned media, SCFA- or lactulose-supplemented media; assay type: cell-based; conditions: 50 mM lactulose in media
Protocol: FIGS. 11A-11F: Bifidobacterium longum supernatant inhibits VRE growth in vitro. (A) Schematic of experimental design for VRE growth in B. longum conditioned media (CM). B. longum was grown in BHIS for 24-hours prior to collecting and filtering the supernatant. VRE growing at steady state was then diluted to a low density (OD600=0.05) prior to inoculating in various dilutions of B. longum conditioned media in fresh BHIS. (B) VRE growth curves in 100%, 50%, 12.5%, and 0% CM with the pH of the 4 concentrations of CM in BHIS shown in the right portion of this panel. […] (E) VRE was grown in minimal media containing either no additive (blue) or 50 mM lactulose, and OD600 was measured over time. (F) VRE was grown in BHIS with or without 50 mM lactulose, and OD600 was measured over time. […]
The Bifidobacteria longum strains MSK.11.12 and DFI.2.45 were previously derived from two distinct healthy donor stool samples and whole genome sequenced (BioSample ID: SAMN19731851 and SAMN22167409). […] All growth curves were obtained in anaerobic culture conditions at 37° C. on a BioTek EPOCH2 microplate reader with BioTek Gen 5 3.11 software. Growth curves were analyzed in GraphPad Prism Version 9.4.0. Lactulose concentrations in were measured using the EnzyChrom™ Lactulose Assay Kit (ELTL-100).

SBP = test: Spontaneous bacterial peritonitis (SBP) in liver disease patients paired with fecal samples, logistic regression; assay type: in vivo, human
Source text: FIGS. 12A-12E: Bifidobacteria expansion and associated metabolite production are associated with decreased incidence of spontaneous bacterial peritonitis (SBP). (A) Flow diagram depicting number of samples and number of patients that were filtered out at each step of analysis for SBP. (B) Taxonomic relative abundance by shotgun metagenomics of stool samples paired to ascites samples is plotted in order of decreasing Bifidobacteria abundance from left to right. Underneath each stool sample is the clinical diagnosis associated with an ascites sample (SBP (red) or not SBP (green)). (C) Volcano plot of normalized metabolite concentrations. P-values were calculated using a two-tailed Wilcoxon rank sum test and are corrected for multiple comparisons using the Benjamini-Hochberg procedure. Values with log 2 fold-change >1 (corresponding to a 2-fold change with a p-value <0.05) were considered significant. (D and E) Quantitative levels for butyrate, propionate, lithocholic acid, and alloisolithocholic acid were compared from samples associated and not associated with SBP. Units for SCFA are mM, and units for BA derivatives are in μg/mL. Each point represents a single sample. Median and interquartile range are indicated by the horizontal line and box, respectively. […] Statistical comparisons between individual groups were analyzed using a two-tailed Wilcoxon rank sum test. […]

OC[C@H]1O[C@@H](O[C@@H]2[C@@H](CO)OC(O)(CO)[C@H]2O)[C@H](O)[C@@H](O)[C@H]1O (mixture of isomers) [Lactulose, lactulose]
VRE growth [1]: modestly augments
Samples with lactulose exposure among sbp (SBP; N = 21): (76%)
Samples with lactulose exposure among no sbp (SBP; N = 101): (79%)
